Data reported in patent US10975013B2, “Method for producing vanillin” (T. HASEGAWA CO., LTD., priority 2018, dated 2021).

Assays:
Format in all cases: physicochemical
[1] = Solubility of vanillin in various solvents at 25° C.
[2] = Solubility of vanillin in solvent-heptane mixed solvents (1:1) at 25° C.
[3] = Solubility of vanillin in dibutyl maleate-solvent mixed solvents (1:1) at 25° C.

Solubility (mass %) of vanillin at 25° C. ([1]; solvent 1-Chlorotetradecane): 0.4% mass %
Solubility (mass %) of vanillin at 25° C. ([1]; solvent Benzyl benzoate): 6.6% mass %
Solubility (mass %) of vanillin at 25° C. ([1]; solvent Dibenzyl ether): 5.5% mass %
Solubility (mass %) of vanillin at 25° C. ([1]; solvent Dibutyl adipate): 10.9% mass %
Solubility (mass %) of vanillin at 25° C. ([1]; solvent Dibutyl fumarate): 9.2% mass %
Solubility (mass %) of vanillin at 25° C. ([1]; solvent Dibutyl maleate): 11.3% mass %
Solubility (mass %) of vanillin at 25° C. ([1]; solvent Dibutyl succinate): 15.4% mass %
Solubility (mass %) of vanillin at 25° C. ([1]; solvent Diethyl phthalate): 14.8% mass %
Solubility (mass %) of vanillin at 25° C. ([1]; solvent Diethyl sebacate): 13.6% mass %
Solubility (mass %) of vanillin at 25° C. ([1]; solvent Diisobutyl adipate): 7.7% mass %
Solubility (mass %) of vanillin at 25° C. ([1]; solvent Ethyl laurate): 3.1% mass %
Solubility (mass %) of vanillin at 25° C. ([1]; solvent Isopropyl myristate): 2.0% mass %
Solubility (mass %) of vanillin at 25° C. ([1]; solvent Tetraglyme): 31.3% mass %
Solubility (mass %) of vanillin at 25° C. ([1]; solvent Tripropionin): 18.1% mass %
Solubility (mass %) of vanillin at 25° C. ([1]; solvent n-Pentadecane): 0.05% mass %
Solubility (mass %) of vanillin at 25° C. ([1]; solvent γ-Undecalactone): 16.2% mass %
Solubility (mass %) of vanillin at 25° C. ([1]; solvent δ-Decalactone): 17.4% mass %
Solubility (mass %) of vanillin in solvent-heptane mixed solvent (1:1) at 25° C. ([2]; Benzyl benzoate-heptane (1:1)): 1.2% mass %
Solubility (mass %) of vanillin in solvent-heptane mixed solvent (1:1) at 25° C. ([2]; Dibenzyl ether-heptane (1:1)): 0.9% mass %
Solubility (mass %) of vanillin in solvent-heptane mixed solvent (1:1) at 25° C. ([2]; Dibutyl adipate-heptane (1:1)): 1.4% mass %
Solubility (mass %) of vanillin in solvent-heptane mixed solvent (1:1) at 25° C. ([2]; Dibutyl fumarate-heptane (1:1)): 1.0% mass %
Solubility (mass %) of vanillin in solvent-heptane mixed solvent (1:1) at 25° C. ([2]; Dibutyl succinate-heptane (1:1)): 1.7% mass %
Solubility (mass %) of vanillin in solvent-heptane mixed solvent (1:1) at 25° C. ([2]; Diethyl phthalate-heptane (1:1)): Oiling out
Solubility (mass %) of vanillin in solvent-heptane mixed solvent (1:1) at 25° C. ([2]; Diethyl sebacate-heptane (1:1)): 1.6% mass %
Solubility (mass %) of vanillin in solvent-heptane mixed solvent (1:1) at 25° C. ([2]; Diisobutyl adipate-heptane (1:1)): 1.4% mass %
Solubility (mass %) of vanillin in solvent-heptane mixed solvent (1:1) at 25° C. ([2]; Ethyl laurate-heptane (1:1)): 0.6% mass %
Solubility (mass %) of vanillin in solvent-heptane mixed solvent (1:1) at 25° C. ([2]; Isopropyl myristate-heptane (1:1)): 0.3% mass %
Solubility (mass %) of vanillin in solvent-heptane mixed solvent (1:1) at 25° C. ([2]; Tetraglyme-heptane (1:1)): Oiling out
Solubility (mass %) of vanillin in solvent-heptane mixed solvent (1:1) at 25° C. ([2]; Tripropionin-heptane (1:1)): Oiling out
Solubility (mass %) of vanillin in solvent-heptane mixed solvent (1:1) at 25° C. ([2]; dibutyl maleate-Heptane (1:1)): 1.7% mass %
Solubility (mass %) of vanillin in solvent-heptane mixed solvent (1:1) at 25° C. ([2]; γ-Undecalactone-heptane (1:1)): 3.6% mass %
Solubility (mass %) of vanillin in solvent-heptane mixed solvent (1:1) at 25° C. ([2]; δ-Decalactone-heptane (1:1)): Oiling out
Solubility (mass %) of vanillin in dibutyl maleate-solvent mixed solvent (1:1) at 25° C. ([3]; dibutyl maleate-Cyclohexane (1:1)): 2.1% mass %
Solubility (mass %) of vanillin in dibutyl maleate-solvent mixed solvent (1:1) at 25° C. ([3]; dibutyl maleate-Heptane (1:1)): 1.7% mass %
Solubility (mass %) of vanillin in dibutyl maleate-solvent mixed solvent (1:1) at 25° C. ([3]; dibutyl maleate-Hexane (1:1)): 1.7% mass %
Solubility (mass %) of vanillin in dibutyl maleate-solvent mixed solvent (1:1) at 25° C. ([3]; dibutyl maleate-Isooctane (1:1)): 1.8% mass %
Solubility (mass %) of vanillin in dibutyl maleate-solvent mixed solvent (1:1) at 25° C. ([3]; dibutyl maleate-Petroleum ether (1:1)): 1.6% mass %
Solubility (mass %) of vanillin in dibutyl maleate-solvent mixed solvent (1:1) at 25° C. ([3]; dibutyl maleate-Toluene (1:1)): 5.5% mass %
Structure (SMILES): COc1cc(C=O)ccc1O [vanillin]
